Converted amounts (≈) assume the structure as drawn.
Assay: DPPH radical scavenging assay
Type: biochemical
Conditions: DPPH radical scavenging activity in 30 minutes
Experimental: FIGS. 4A through 4D show lipid peroxidation and DPPH (1,1-diphenyl-2-picrylhydrazyl) analysis result which were obtained by measuring the antioxidant activity of Comparative Example 1 (SBR), Comparative Example 2 (MOB) and Present Example 1 (GenoTX-407). […] As shown in the upper left graph of FIG. 4, after exposure to FeCl3 (50 μM), TBARS (thiobarbituric acid reactive substances) level increased (74%).

- EC50, DPPH: 14.38 µg/mL (≈ 81.6 µM)
Structure (SMILES): O=C1O[C@H]([C@@H](O)CO)C(O)=C1O [ascorbic acid]
